Patent US20230398130A1, “METHODS AND COMPOSITIONS FOR DIFFERENTIATING STEM CELLS” (Massachusetts Institute of Technology, priority 2020, published 2023)

Columns and labels:
[1] = system: ISC-enriched organoids; assay: Primary screen, 384-well 2.5-D organoid differentiation (ENR+CD, 6 days, Target Selective Inhibitor Library, vs whole-plate median): ATP (CellTiter-Glo 3D, CTG); details: for Dose.FC.CTG (log 2 fold change) / Dose.FC.CTG (log 2 fold change, ATP): vs plate median
[2] = system: ISC-enriched organoids; assay: Primary screen, 384-well 2.5-D organoid differentiation (ENR+CD, 6 days): basal lysozyme secretion (LYZ.NS); format: cell-based, murine; details: for Dose.FC.LYZ.NS (log 2 fold change) / Dose.FC.LYZ.NS (log 2 fold change, basal lysozyme secretion): vs plate median
From the text: (§1) High-throughput screening.

[3] = system: ISC-enriched organoids; assay: Primary screen, 384-well 2.5-D organoid differentiation (ENR+CD, 6 days): carbachol-induced lysozyme secretion (LYZ.S); format: cell-based, murine; details: vs plate median; for Dose.FC.LYZ.S (log 2 fold change): primary screen
From the text: as §1

Row | SMILES | Z.CTG (standard z score) ([1]; dose 10.00 uM) | Dose.FC.CTG (log 2 fold change, ATP) ([1]; dose 10.00 uM) | Z.LYZ.NS (standard z score) ([2]; dose 10.00 uM) | Dose.FC.LYZ.NS (log 2 fold change, basal lysozyme secretion) ([2]; dose 10.00 uM) | Dose.FC.LYZ.S (log 2 fold change, carbachol-induced lysozyme secretion) ([3]; dose 10.00 uM) | Z.CTG (standard z score) ([1]; dose 0.08 uM) | Dose.FC.CTG (log 2 fold change, ATP) ([1]; dose 0.08 uM) | Z.CTG (standard z score) ([1]; dose 0.40 uM) | Dose.FC.CTG (log 2 fold change, ATP) ([1]; dose 0.40 uM) | Z.CTG (standard z score) ([1]; dose 2.00 uM) | Dose.FC.CTG (log 2 fold change, ATP) ([1]; dose 2.00 uM) | Z.LYZ.NS (standard z score) ([2]; dose 0.08 uM) | Dose.FC.LYZ.NS (log 2 fold change, basal lysozyme secretion) ([2]; dose 0.08 uM) | Z.LYZ.NS (standard z score) ([2]; dose 0.40 uM) | Dose.FC.LYZ.NS (log 2 fold change, basal lysozyme secretion) ([2]; dose 0.40 uM) | Z.LYZ.NS (standard z score) ([2]; dose 2.00 uM) | Dose.FC.LYZ.NS (log 2 fold change, basal lysozyme secretion) ([2]; dose 2.00 uM) | Dose.FC.LYZ.S (log 2 fold change, carbachol-induced lysozyme secretion) ([3]; dose 0.08 uM) | Dose.FC.LYZ.S (log 2 fold change, carbachol-induced lysozyme secretion) ([3]; dose 0.40 uM) | Dose.FC.LYZ.S (log 2 fold change, carbachol-induced lysozyme secretion) ([3]; dose 2.00 uM) | other results
1 | CO[C@H]1C[C@@H]2CC[C@@H](C)[C@@](O)(O2)C(=O)C(=O)N2CCCC[C@H]2C(=O)O[C@H]([C@H](C)C[C@@H]2CC[C@@H](OC(=O)C(C)(CO)CO)[C@H](OC)C2)CC(=O)[C@H](C)/C=C(\C)[C@@H](O)[C@@H](OC)C(=O)[C@H](C)C[C@H](C)/C=C/C=C/C=C/1C [Temsirolimus (CCI-779, NSC 683864)] | 0.478 | 0.200 | 1.035 | 0.119 | 0.153 | – | – | – | – | – | – | – | – | – | – | – | – | – | – | – | Z.CTG (standard z score) ([1]; Dose 0.08 uM, primary screen): 1.228; Dose.FC.CTG (log 2 fold change) ([1]; Dose 0.08 uM, primary screen): 0.514; Z.CTG (standard z score) ([1]; Dose 0.40 uM, primary screen): 1.393; Dose.FC.CTG (log 2 fold change) ([1]; Dose 0.40 uM, primary screen): 0.583; Z.CTG (standard z score) ([1]; Dose 2.00 uM, primary screen): 1.382; Dose.FC.CTG (log 2 fold change) ([1]; Dose 2.00 uM, primary screen): 0.578; Z.LYZ.NS (standard z score) ([2]; Dose 0.08 uM, primary screen): 0.790; Dose.FC.LYZ.NS (log 2 fold change) ([2]; Dose 0.08 uM, primary screen): 0.091; Z.LYZ.NS (standard z score) ([2]; Dose 0.40 uM, primary screen): 0.763; Dose.FC.LYZ.NS (log 2 fold change) ([2]; Dose 0.40 uM, primary screen): 0.088; Z.LYZ.NS (standard z score) ([2]; Dose 2.00 uM, primary screen): 1.494; Dose.FC.LYZ.NS (log 2 fold change) ([2]; Dose 2.00 uM, primary screen): 0.172; Dose.FC.LYZ.S (log 2 fold change) ([3]; Dose 0.08 uM): 0.082; Dose.FC.LYZ.S (log 2 fold change) ([3]; Dose 0.40 uM): 0.152; Dose.FC.LYZ.S (log 2 fold change) ([3]; Dose 2.00 uM): 0.132
2 | C[C@H](Cn1cnc2c(N)ncnc21)OCP(=O)(O)O [Tenofovir] | −0.804 | −0.337 | −1.899 | −0.218 | −0.271 | 0.045 | 0.019 | −0.200 | −0.084 | −0.308 | −0.129 | 0.673 | 0.077 | −0.662 | −0.076 | −1.153 | −0.132 | 0.045 | −0.080 | −0.171 | –
3 | CN(C)CCCCC(=O)Nc1ccc(NC(=S)NC(=O)c2ccc(C(C)(C)C)cc2)cc1 [Tenovin-6] | −3.414 | −1.429 | −1.671 | −0.192 | −0.344 | 0.165 | 0.069 | −1.209 | −0.506 | −2.654 | −1.111 | 1.050 | 0.121 | −0.463 | −0.053 | −1.686 | −0.194 | 0.028 | −0.109 | −0.328 | –
